Key:
[1] = Storage stability of capsules in closed HDPE bottles at 40° C. and 75% relative humidity for 6 months: drug content and drug-related impurities; type: physicochemical
Procedure: Capsules prepared above are stored in closed high-density polyethylene (HDPE) bottles at 40° C. and 75% relative humidity for 6 months, and are analyzed for drug content and the levels of drug-related impurity formation.
Capsules prepared above are stored in closed HDPE bottles at 40° C. and 75% relative humidity for 6 months, and are analyzed for drug content and the levels of drug-related impurities.

[2] = In vitro dissolution of capsules, USP Type 1 (Basket) apparatus, 900 mL medium, 100 rpm; type: physicochemical
Procedure: Dissolution profiles for drugs in capsules prepared above are determined in various media using the USP procedure and the following conditions: Type 1 (Basket) apparatus; 900 mL medium; and 100 rpm rotation. Values in the following tables are cumulative percentages of the specified drug that dissolves in the specified times. […]

[3] = Example 3 capsule, 6 Months at 40° C. and 75% relative humidity, closed HDPE bottles
[4] = Example 3 capsule, 6 Months, 40° C./75% RH
[5] = Example 4 capsule, 6 Months at 40° C. and 75% relative humidity, closed HDPE bottles
[6] = Example 4 capsule, 6 Months, 40° C./75% RH, capsule containing hydrochlorothiazide
[7] = Example 4 capsule, Initial, capsule containing hydrochlorothiazide
[8] = Example 3 capsule, 0.1N HCl, 30 Minutes
[9] = Example 3 capsule, 0.1N HCl, 60 Minutes
[10] = Example 3 capsule, pH 2.1 SGF, 30 Minutes
[11] = Example 3 capsule, pH 2.1 SGF, 60 Minutes
[12] = Example 3 capsule, pH 4.5 Acetate buffer USP, 30 Minutes
[13] = Example 3 capsule, pH 4.5 Acetate buffer USP, 60 Minutes
[14] = Example 4 capsule, 0.1N HCl, 30 Minutes
[15] = Example 4 capsule, 0.1N HCl, 60 Minutes
[16] = Example 4 capsule, pH 2.1 SGF, 30 Minutes
[17] = Example 4 capsule, pH 2.1 SGF, 60 Minutes
[18] = Example 4 capsule, pH 4.5 Acetate buffer USP, 30 Minutes
[19] = Example 4 capsule, pH 4.5 Acetate buffer USP, 60 Minutes
[20] = Example 4 capsule, 6 Months, 40° C./75% RH
[21] = Example 4 capsule, pH 6.8 Phosphate buffer USP, 30 Minutes
[22] = Example 4 capsule, pH 6.8 Phosphate buffer USP, 60 Minutes

| Compound | Assay (drug content) [1, 3] | Assay (drug content) ([1]; Example 3 capsule, Initial) | Assay (drug content) [1, 5] | Assay (drug content) ([1]; Example 4 capsule, Initial) | cumulative percentage of drug dissolved [2, 8] [%] | cumulative percentage of drug dissolved [2, 9] [%] | cumulative percentage of drug dissolved [2, 10] [%] | cumulative percentage of drug dissolved [2, 11] [%] | cumulative percentage of drug dissolved [2, 12] [%] | cumulative percentage of drug dissolved [2, 13] [%] | cumulative percentage of drug dissolved [2, 14] [%] | cumulative percentage of drug dissolved [2, 15] [%] | cumulative percentage of drug dissolved [2, 16] [%] | cumulative percentage of drug dissolved [2, 17] [%] | cumulative percentage of drug dissolved [2, 18] [%] | cumulative percentage of drug dissolved [2, 19] [%] | cumulative percentage of drug dissolved [2, 21] [%] | cumulative percentage of drug dissolved [2, 22] [%] | other results |
| --- | --- | --- | --- | --- | --- | --- | --- | --- | --- | --- | --- | --- | --- | --- | --- | --- | --- | --- | --- |
| CC(=O)Oc1ccccc1C(=O)O [Aspirin] | 101.5 % of label content | 100.3 % of label content | 101.3 % of label content | 101.2 % of label content | 96 | 98 | 99 | 100 | 88 | 89 | 96 | 98 | 99 | 100 | 88 | 89 |  |  | Impurity: Salicylic acid [1, 4]: 0.68 % of label content; Impurity: Salicylic acid ([1]; Example 3 capsule, Initial): 0.17 % of label content; Impurity: Salicylic acid [1, 6]: 0.31 % of label content; Impurity: Salicylic acid [1, 7]: 0.13 % of label content; cumulative percentage of drug dissolved ([2]; Example 3 capsule, 0.01N HCl, 30 Minutes): 87%; cumulative percentage of drug dissolved ([2]; Example 3 capsule, 0.01N HCl, 60 Minutes): 89%; cumulative percentage of drug dissolved ([2]; Example 4 capsule, 0.01N HCl, 30 Minutes): 87%; cumulative percentage of drug dissolved ([2]; Example 4 capsule, 0.01N HCl, 60 Minutes): 89% |
| CC(C)NCC(O)COc1ccc(CC(N)=O)cc1 (stereo not drawn) [Atenolol] | 98.7 % of label content | 100.3 % of label content |  |  |  |  |  |  |  |  |  |  |  |  |  |  |  |  |  |
| NS(=O)(=O)c1cc2c(cc1Cl)NCNS2(=O)=O [Hydrochlorothiazide] |  |  | 99.3 % of label content | 99.5 % of label content |  |  |  |  |  |  | 100 | 100 | 88 | 98 | 91 | 97 | 82 | 85 | Impurity: CTZ [1, 20]: 0.04 % of label content; Impurity: DSA [1, 20]: 0.07 % of label content; Impurity: CTZ ([1]; Example 4 capsule, Initial): 0.04 % of label content; Impurity: DSA ([1]; Example 4 capsule, Initial): 0.04 % of label content |
| NCCCC[C@H](N[C@@H](CCc1ccccc1)C(=O)O)C(=O)N1CCC[C@H]1C(=O)O [Lisinopril] | 98.7 % of label content | 98.5 % of label content | 99.0 % of label content | 97.8 % of label content | 97 | 96 | 102 | 105 | 97 | 96 | 100 | 100 | 95 | 98 | 100 | 102 | 94 | 95 | Impurity: RSS isomer [1, 4]: 0.12 % of label content; Impurity: SSS DKP [1, 4]: 0.009 % of label content; Impurity: RSS isomer ([1]; Example 3 capsule, Initial): 0.09 % of label content; Impurity: RSS isomer [1, 6]: 0.09 % of label content; Impurity: SSS DKP [1, 6]: 0.33 % of label content; Impurity: RSS isomer [1, 7]: 0.09 % of label content; Impurity: SSS DKP [1, 7]: 0.05 % of label content; cumulative percentage of drug dissolved ([2]; Example 3 capsule, pH 6.5 SIF, 30 Minutes): 92%; cumulative percentage of drug dissolved ([2]; Example 3 capsule, pH 6.5 SIF, 60 Minutes): 97%; cumulative percentage of drug dissolved ([2]; Example 3 capsule, pH 6.8 Phosphate buffer USP, 30 Minutes): 96%; cumulative percentage of drug dissolved ([2]; Example 3 capsule, pH 6.8 Phosphate buffer USP, 60 Minutes): 96% |

— patent US20120045505A1, “FIXED DOSE DRUG COMBINATION FORMULATIONS” (Dr. Reddy's Laboratories, Inc., priority 2004, published 2012)
